The text below walks through data of the supplement of paper PMC10949913.

Common to all, as to conditions: 48 h
For assay [1], the system named is CU-ACC1. Kind of assay: area under concentration-response curve (viability) (AUC (a.u.)); higher = less active. In a few lines: (§1)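 AC50 and area under the curve values derive from fitted concentration-response curves, restricted to inhibitory or non-responding curve classes. The curves came from three adrenocortical carcinoma cell lines in 1,536-well plates, each receiving 23 nL of every library compound at 11 concentrations. Viability was read by CellTiter-Glo luminescence after 48 h, normalised per plate to vehicle and empty-well controls.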

The subject of assay [2] is CU-ACC1. Kind of assay: AC50 viability; higher = less potent. In a few lines: as §1
Assay [3] relates to NCI-H295R. Kind of assay: area under concentration-response curve (viability) (AUC (a.u.)); higher = less active. The method in brief:
as §1

Assay [4] relates to CU-ACC2. The assay is described as above. In a few lines:
as §1

In assay [5] the test system is NCI-H295R. Nature of the assay: AC50 viability; higher = less potent. In a few lines:
as §1

As for `Cc1cc(C)c(C/N=C(\O)c2cc(-c3ccc(N4CCN(C)CC4)nc3)cc3c2c(C)cn3C(C)C)c(O)n1`, the “area under concentration-response curve” value in assay [1] was determined as 490. Further, the AC50 viability in assay [2] came to 29.5 µM.

On to `CC1=C(OC2=CC3=NC=N[N]3C=C2)C=CC(=C1)NC4=NC=NC5=C4C=C(N\C6=N\C(C)(C)CO6)C=C5`, for which the “area under concentration-response curve” value in assay [1] worked out at 402. Also, in assay [2], the AC50 viability was determined as 0.00296 µM.

For the compound `COc1cc(N2CCC(N3CCN(C)CC3)CC2)ccc1Nc1ncnc(Nc2ccccc2[S+](=O)([O-])C(C)C)n1`, the “area under concentration-response curve” value in assay [1] is 258. In assay [2], this compound registered an AC50 viability of 0.00468 µM.

Consider `CN1CC[C@H]([C@@H]1CO)C2=C3OC(=C/C(=O)C3=C(O)C=C2O)\C4=C(Cl)C=C(C=C4)C(F)(F)F`, for which the results for the “area under concentration-response curve” value in assay [3] and in assay [1] were 538 and 477, respectively. In assay [2], this compound came in with an AC50 viability of 14.8 µM.

On to `CC(=O)N(O)CCCCCNC(=O)CCC(=O)N(O)CCCCCNC(=O)CCC(=O)N(O)CCCCCN`, for which the “area under concentration-response curve” value in assay [3] turned out to be 432; in assay [1], 379. Moreover, in assay [2], the AC50 viability is 11.8 µM.

Regarding `C[C@H](NC1=C2N=C[NH]C2=NC=N1)C/3=C/C4=C(C(=CC=C4)Cl)C(=O)N3C5=CC=CC=C5`, the “area under concentration-response curve” value in assay [1] is 447. Moreover, the AC50 viability in assay [2] was found to be 20.9 µM.

With `c1nc2c(NC3CCCCC3)nc(Nc3ccc(N4CCOCC4)cc3)nc2[nH]1`, the “area under concentration-response curve” value in assay [3] stood at 274; in assay [1], 283. For the same compound, the AC50 viability in assay [2] came out at 0.00118 µM.

As for `O=C(/C=C/c1ccc(Cl)cc1)N1CCC2(CC1)CN(Cc1ccc(Cl)c(Cl)c1)C(=O)O2`, the “area under concentration-response curve” value in assay [1] amounted to 432. Further, in assay [2], the AC50 viability was 20.9 µM.

In the case of `CN(C)c1ccccc1CN1CCCN(Cc2ccccc2N(C)C)C1c1ccncc1`, the “area under concentration-response curve” value in assay [3] was determined as 444; in assay [1], 448. The same compound had an AC50 viability in assay [2] of 8.33 µM.

As for `C[C@](O)(COc1ccc(C#N)cc1)C(=O)Nc1ccc(C#N)c(C(F)(F)F)c1`, the “area under concentration-response curve” value in assay [3] was 248; in assay [1], 322. The same compound yielded an AC50 viability in assay [2] of 0.00118 µM.

Take `CC(=O)O[C@@]1(CC[C@H]2[C@@H]3\C=C(Cl)/C4=C/C(=O)[C@@H]5C[C@@H]5[C@]4(C)[C@H]3CC[C@]12C)C(C)=O`: the entries for the “area under concentration-response curve” value in assay [3] and in assay [1] were 304 and 325, respectively. In assay [2], this compound displayed an AC50 viability of 2.35 µM.

For `ClC1=C[NH]N=C1C\2NC(=N\C3=C2C(=O)CCC3)/NC4=NC5=CC=CC=C5O4` (centres undefined), the “area under concentration-response curve” value in assay [1] is 426. The compound further showed an AC50 viability in assay [2] of 41.7 µM.

Take `O=C(O)CC[C@H]1CC[C@@](c2cc(F)ccc2F)([S+](=O)([O-])c2ccc(Cl)cc2)CC1`: the figures for the “area under concentration-response curve” value in assay [3] and in assay [1] were 255 and 359, respectively. Also, in assay [2], the AC50 viability amounted to 0.00105 µM.

`CN(C)CCN1C(=O)c2cccc3cc(N)cc(c23)C1=O`: the “area under concentration-response curve” value in assay [1] is 452. Also, the AC50 viability in assay [2] came to 26.3 µM.

For the compound `COc1cccc2c1CCCC2CCCN1CCN(C2CCCCC2)CC1` (centres undefined), the “area under concentration-response curve” value in assay [1] was found to be 501. The AC50 viability in assay [2] worked out at 16.6 µM.

In the case of `OC1=CC=C(C=C1)C/2=C/C3=C(OC2)C=C(O)C=C3`, the “area under concentration-response curve” value in assay [3] came to 471; in assay [1], 436. This compound also returned an AC50 viability in assay [2] of 18.6 µM.

`OCCOc1ccc(/C(=C(/CCCl)c2ccccc2)c2ccccc2)cc1`: the “area under concentration-response curve” value in assay [1] came out at 470. The compound also came in with an AC50 viability in assay [2] of 23.5 µM.

As for `CN(C)CCCOc1ccc(-c2ccc3ncc4c(c3c2)n(C2CCOCC2)c(=O)n4C)cn1`, the “area under concentration-response curve” value in assay [1] was found to be 487. The compound also returned an AC50 viability in assay [2] of 11.5 µM.

`CN(C)Cc1cccc(N/C(=C2\C(=O)Nc3cc(C(N)=O)ccc32)c2ccccc2)c1`: the “area under concentration-response curve” value in assay [1] was 420. The AC50 viability in assay [2] stood at 23.5 µM.

On to `CN(C)CCCN\C1=C\2C(=O)N(C)C(=O)\N=C2N(C)C3=C1C=CC=C3`, for which the “area under concentration-response curve” value in assay [1] came to 501. Moreover, the AC50 viability in assay [2] is 18.6 µM.

Consider `Nc1ncnc(Nc2ccc(OCc3ccccc3)c(Cl)c2)c1/C=N/OCCN1CCOCC1`, for which, in assay [1], the “area under concentration-response curve” value turned out to be 324. The same compound yielded an AC50 viability in assay [2] of 20.9 µM.

For the compound `O=C(N[C@H]1CCC[C@H](CO)C1)C1CCN(c2nc3cc(Cl)c(-c4ccc(Cl)cc4)cc3o2)CC1`, the “area under concentration-response curve” value in assay [1] is 484. The compound further yielded an AC50 viability in assay [2] of 20.9 µM.

For `N#CC1(c2cccc(C(=O)Nc3cc(Oc4ccc5nc(NC(=O)C6CC6)sc5n4)ccc3F)c2Cl)CC1`, in assay [1], the “area under concentration-response curve” value was 390. The compound also had an AC50 viability in assay [2] of 4.17 µM.

For `O=C(O)[C@H](O)[C@@H](O)[C@H](O[C@@H]1O[C@H](CO)[C@H](O)[C@H](O)[C@H]1O)[C@H](O)CO`, the “area under concentration-response curve” value in assay [3] was found to be 307; in assay [1], 342. The same compound came in with an AC50 viability in assay [2] of 0.00118 µM.

As to `N[C@@H]1C[C@H]1c1ccccc1`, the “area under concentration-response curve” value in assay [3] was 353; in assay [1] it was 341. The AC50 viability in assay [2] stood at 0.00186 µM.

On to `O=C1CSC(=O)N1C(CCc1ccncc1)COc1ccc(-c2cccc([N+](=O)[O-])c2)cc1` (centres undefined), for which the “area under concentration-response curve” value in assay [3] was 396; in assay [1], 309. The compound further displayed an AC50 viability in assay [2] of 2.63 µM.

Take `Cc1nc2cc(C(=O)N3CCC4(CC3)CC(=O)c3c(cnn3C(C)C)C4)ccc2[nH]1`: the “area under concentration-response curve” value in assay [3] was 568; in assay [1] it was 467. The same compound returned an AC50 viability in assay [2] of 26.3 µM.

On to `N#Cc1ccc(COC[C@H]2O[C@@H](n3c(NCc4ccc(Cl)c(Cl)c4)nc4c(N)ncnc43)[C@H](O)[C@@H]2O)cc1`, for which the “area under concentration-response curve” value in assay [3] was found to be 494; in assay [1] it was 464. In addition, the AC50 viability in assay [2] is 20.9 µM.

`Cc1cc2c(F)c(Oc3ncnn4cc(OC[C@@H](C)O)c(C)c34)ccc2[nH]1`: the “area under concentration-response curve” value in assay [3] worked out at 329; in assay [1], 317. For the same compound, the AC50 viability in assay [2] worked out at 0.00263 µM.

With `COc1ccccc1N1CCN(CCN(C(=O)C2CCCCC2)c2ccccn2)CC1`, the figures for the “area under concentration-response curve” value in assay [3] and in assay [1] were 378 and 351, respectively. The compound further displayed an AC50 viability in assay [2] of 20.9 µM.

On to `C[C@@H](Nc1cc(F)cc(F)c1)c1cc(C(=O)N(C)C)cc2c(=O)cc(N3CCOCC3)oc12`, for which the “area under concentration-response curve” value in assay [1] came to 466. The compound also yielded an AC50 viability in assay [2] of 13.2 µM.

Regarding `C[C@H](NC(=O)[C@@H](O)c1cc(F)cc(F)c1)C(=O)N[C@@H]1C(=O)N(C)c2ccccc2-c2ccccc21`, the “area under concentration-response curve” value in assay [3] was found to be 424; in assay [1] it was 381. The compound also yielded an AC50 viability in assay [2] of 26.3 µM.

With `CC(C)c1c(C(=O)Nc2ccccc2)c(-c2ccccc2)c(-c2ccc(F)cc2)n1CC[C@@H](O)C[C@@H](O)CC(=O)O`, the “area under concentration-response curve” value in assay [3] turned out to be 635; in assay [1] it was 544. This compound also showed an AC50 viability in assay [2] of 6.45 µM.

`COC[C@H]1OC(=O)C2=COC3=C2[C@@]1(C)\C4=C(\[C@@H]5CC[C@H](O)[C@@]5(C)C[C@H]4OC(C)=O)C3=O`: the “area under concentration-response curve” value in assay [1] turned out to be 311. This compound returned an AC50 viability in assay [2] of 4.17 µM.

Regarding `Cc1c(NC(=O)OCC2COCCN2)cn2ncnc(Nc3ccc4c(cnn4Cc4cccc(F)c4)c3)c12` (centres undefined), in assay [1], the “area under concentration-response curve” value was determined as 433. This compound also had an AC50 viability in assay [2] of 23.5 µM.

In the case of `CCOC1=CC(=CC=C1C/2=N/[C@@](C)(C3=CC=C(Cl)C=C3)[C@](C)(N2C(=O)N4CCN(CC4)CC(=O)N5CCOCC5)C6=CC=C(Cl)C=C6)C(C)(C)C`, in assay [1], the “area under concentration-response curve” value came out at 440. For the same compound, in assay [2], the AC50 viability was determined as 16.3 µM.

As for `CC(C)[N]1C=C(C)C2=C1C=C(C=C2C(=O)NC\C3=C(C)\C=C(C)/NC3=O)C4=CC=C(N=C4)N5CCN(C)CC5`, the “area under concentration-response curve” value in assay [1] stood at 491. The same compound returned an AC50 viability in assay [2] of 23.5 µM.

As for `CCN(CC)CCCCNc1nc2cc(Cl)c(Cl)cc2nc1-c1ccc(-c2cccs2)s1`, the “area under concentration-response curve” value in assay [1] is 451. Further, the AC50 viability in assay [2] was found to be 23.5 µM.

Consider `CC(=O)N1CCN(CCOC2=CC=C(C=C2)C3CCN(CC3)/C4=N/[N]5C(=NN=C5C(F)(F)F)CC4)CC1`, for which the “area under concentration-response curve” value in assay [1] was 430. This compound showed an AC50 viability in assay [2] of 11.8 µM.

`CC1=CC=CC=C1CN2C(=O)C/3=C(/CCN(CC4=CC=CC=C4)C3)N\5CC\N=C25`: the “area under concentration-response curve” value in assay [1] was 313. In assay [2], this compound registered an AC50 viability of 6.61 µM.

In the case of `CC[C@]1(O)C[C@H]2CN(CCC3=C([NH]C4=C3C=CC=C4)[C@@](C2)(C(=O)OC)C5=CC6=C(C=C5OC)N(C=O)[C@H]7[C@](O)([C@H](OC(C)=O)[C@]8(CC)\C=C/CN9CC[C@]67[C@H]89)C(=O)OC)C1`, the results for the “area under concentration-response curve” value in assay [3], in assay [1] and in assay [4] were 471, 504 and 590, respectively. In assay [5], this compound returned an AC50 viability of 3.32 µM.

With `CCCCCNC(=N)N/N=C/c1c[nH]c2ccc(OC)cc12`, in assay [1], the “area under concentration-response curve” value is 416. Also, the AC50 viability in assay [2] came to 14.8 µM.

For the compound `C[S+](=O)([O-])c1ccc(-c2cnc(NCc3ccco3)n3cnnc23)cc1`, the “area under concentration-response curve” value in assay [1] was found to be 357. Moreover, the AC50 viability in assay [2] amounted to 2.09 µM.

With `CC(C)NC[C@@H](C(=O)N1CCN(c2ncnc3c2[C@H](C)C[C@H]3O)CC1)c1ccc(Cl)cc1`, the “area under concentration-response curve” value in assay [3] was 417; in assay [1], 487; in assay [4], 555. In addition, the AC50 viability in assay [5] came out at 3.72 µM.
